By IC50 is commonly meant the concentration needed to halve the response being measured.

Experiment [1] deals with nuclear BRD4-NUT foci in HCC2494 NUT midline carcinoma cells (Homo sapiens (Human), UniProt O60885+Q86Y26). Description: Nut-foci formation assay. It is filed as cell-based. To be noted: 24 hours, read-out: HCS Brd4-NUT IC50. Here is the method: HCC2494 NUT midline carcinoma cells (expressing BRD4-NUT-fusion) were obtained from the University of Texas Southwestern and cultured in RPMI-1640 medium containing 10% Foetal Calf Serum at 37° C. in a humidified 5% CO2 incubator.
Compound-mediated inhibition of BRD4 activity was monitored by quantification of the number and intensity of nuclear BRD4-NUT foci using automated immunofluorescence microscopy. Briefly, 5000 cells in 20 μL fresh medium were seeded into Poly-D-Lysine-precoated 384-well plates and incubated overnight at 37° C. and 5% CO2, followed by addition of 5 μl medium containing compound dilutions at 5-fold their final intended concentration. Dose-response effects were assessed by 3-fold serial dilutions of the test compound, starting at 10 μM. Following incubation of the cells for 24 hours at 37° C. and 5% CO2, the cells were fixed by incubation with 3.7% formaldehyde for 10 min, followed by immunofluorescence staining using rabbit anti-NUT (Cell Signaling Technologies, Cat#3625) as primary, and AlexaFluor488-labeled goat anti-rabbit (Invitrogen, Cat#A11008) as secondary antibody (latter complemented with 1 μg/mL Hoechst33342 as DNA dye). Assay plates were imaged using the appropriate filter sets on the Cellomics VTi automated fluorescence microscopy platform (ThermoFisher Scientific) and the population average of the number of NUT-foci per nucleus is quantified using the Cellomics Spot Detection BioApplication image analysis algorithm (ThermoFisher Scientific). The effect of a particular test compound concentration on NUT-foci number and intensity is expressed as percentage of the value obtained for cells treated with vehicle only (DMSO, 0.1% final concentration), which was set as 100. Compound concentrations leading to half-maximal (IC50) inhibition of the aforementioned readout parameters were determined using standard four parameter curve fitting.

A further experiment relates to THP-1 cells. Nature of the experiment: Cell growth inhibition assay (CellTiter-Glo), THP-1. Conditions: Homo sapiens, read-out: THP-1 TGI. It is filed as cell-based. An outline of the steps:
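Compounds tested as 3-fold dilution series starting at 10 μM (DMSO 0.1% final); viability read by cellular ATP (CTG luminescence) at 37° C. Signal corrected for no-cell background and a day-0 plate, scaled −100% to 100%; four-parameter fitting gives IC50 and TGI.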
(Cellular ATP, detected with luciferase, serves as a proxy for viable cell number.)

As to `COc1ncc(-n2nc(C)c3c2C(=O)N(c2cc(C)c(=O)n(C)c2)C3c2ccc(Cl)cc2)c(OC)n1` (racemic) [Example 52, 4-(4-chlorophenyl)-1-(2,4-dimethoxypyrimidin-5-yl)-5-(1,5-dimethyl-6-oxo-1,6-dihydropyridin-3-yl)-3-methyl-4,5-dihydropyrrolo[3,4-c]pyrazol-6(1H)-one], in experiment [1], the IC50 was 0.117 µM. On to `Cc1nn(-c2ccnn2C)c2c1C(c1ccc(Cl)cc1)N(c1cc(C)c(=O)n(C)c1)C2=O` (racemic) [Example 74, 4-(4-chlorophenyl)-5-(1,5-dimethyl-6-oxo-1,6-dihydropyridin-3-yl)-3-methyl-1-(1-methyl-1H-pyrazol-5-yl)-4,5-dihydropyrrolo[3,4-c]pyrazol-6(1H)-one], for which, in experiment [1], the IC50 turned out to be 0.0442 µM. Regarding `Cc1cc(N2C(=O)c3c(cnn3C3CC3)C2c2ccc(Cl)cc2)cn(C)c1=O` (stereo not shown) [Example 34, 4-(4-chlorophenyl)-1-cyclopropyl-5-(1,5-dimethyl-6-oxo-1,6-dihydropyridin-3-yl)-4,5-dihydropyrrolo[3,4-c]pyrazol-6(1H)-one], the IC (total growth inhibition) in the experiment with THP-1 cells amounted to 0.321 µM. The IC50 in experiment [1] stood at 0.202 µM. Taken in the same sequence, the figures for `Cn1cc(N2C(=O)c3c(c(C(F)(F)F)nn3C3CC3)C2c2ccc(Cl)cc2)cc(Cl)c1=O` (stereo not shown) [Example 44, 5-(5-chloro-1-methyl-6-oxo-1,6-dihydropyridin-3-yl)-4-(4-chlorophenyl)-1-cyclopropyl-3-(trifluoromethyl)-4,5-dihydropyrrolo[3,4-c]pyrazol-6(1H)-one] were 0.484 µM and 0.164 µM. In the same order, the values of `Cc1nn(C2CC2)c2c1[C@@H](c1ccc(Cl)cc1)N(c1cc(C)c(=O)n(C)c1)C2=O` [Example 49, (R)-4-(4-chlorophenyl)-1-cyclopropyl-5-(1,5-dimethyl-6-oxo-1,6-dihydropyridin-3-yl)-3-methyl-4,5-dihydropyrrolo[3,4-c]pyrazol-6(1H)-one] are 0.0603 µM and 0.0341 µM.

For the compound `Cc1nn(C2CC2)c2c1[C@@H](c1ccc(Cl)cc1)N(c1cc(Cl)c(=O)n(C)c1)C2=O` [Example 51, (R)-5-(5-chloro-1-methyl-6-oxo-1,6-dihydropyridin-3-yl)-4-(4-chlorophenyl)-1-cyclopropyl-3-methyl-4,5-dihydropyrrolo[3,4-c]pyrazol-6(1H)-one], the IC (total growth inhibition) in the experiment on THP-1 cells worked out at 0.126 µM. In experiment [1], the IC50 was found to be 0.0764 µM. For `COc1ncc(-n2nc3c(c2C(C)C)C(c2ccc(Cl)cc2)N(c2ccc4onc(C)c4c2)C3=O)c(OC)n1` (stereo not shown) [Example 54, 4-(4-chlorophenyl)-2-(2,4-dimethoxypyrimidin-5-yl)-3-isopropyl-5-(3-methylbenzo-[d]isoxazol-5-yl)-4,5-dihydropyrrolo[3,4-c]pyrazol-6(2H)-one], in the experiment on THP-1 cells, the IC (total growth inhibition) was determined as 1.43 µM. Moreover, in experiment [1], the IC50 was found to be 0.49 µM.

With `COc1ncc(-n2nc3c(c2C)C(c2ccc(Cl)cc2)N(c2cc(Cl)c(=O)n(C)c2)C3=O)c(OC)n1` (stereo not shown) [Example 55, 5-(5-chloro-1-methyl-6-oxo-1,6-dihydropyridin-3-yl)-4-(4-chlorophenyl)-2-(2,4-dimethoxypyrimidin-5-yl)-3-methyl-4,5-dihydropyrrolo[3,4-c]pyrazol-6(2H)-one], in the experiment on THP-1 cells, the IC (total growth inhibition) was found to be 0.364 µM. In experiment [1], the IC50 stood at 0.0541 µM. With `CCc1nn(C2CC2)c2c1C(c1ccc(Cl)cc1)N(c1cc(C)c3nnc(C)n3c1)C2=O` (stereo not shown) [Example 70, 4-(4-chlorophenyl)-1-cyclopropyl-5-(3,8-dimethyl-[1,2,4]triazolo[4,3-a]pyridin-6-yl)-3-ethyl-4,5-dihydropyrrolo[3,4-c]pyrazol-6(1H)-one], the IC (total growth inhibition) in the experiment with THP-1 cells amounted to 0.0305 µM. Besides, the IC50 in experiment [1] worked out at 0.0114 µM. As to `COc1ncccc1-n1nc(C)c2c1C(=O)N(c1cc(Cl)c(=O)n(C)c1)C2c1ccc(Cl)cc1` (stereo not shown) [Example 72, 5-(5-chloro-1-methyl-6-oxo-1,6-dihydropyridin-3-yl)-4-(4-chlorophenyl)-1-(2-methoxypyridin-3-yl)-3-methyl-4,5-dihydropyrrolo[3,4-c]pyrazol-6(1H)-one], the IC (total growth inhibition) in the experiment on THP-1 cells stood at 0.408 µM. For the same compound, the IC50 in experiment [1] was found to be 0.141 µM.

For the compound `Cc1cc(N2C(=O)c3nn(C)c(O)c3C2c2ccc(Cl)cc2)cn(C)c1=O` (stereo not shown) [Example 73, 4-(4-chlorophenyl)-5-(1,5-dimethyl-6-oxo-1,6-dihydropyridin-3-yl)-3-hydroxy-2-methyl-4,5-dihydropyrrolo[3,4-c]pyrazol-6(2H)-one], in the experiment on THP-1 cells, the IC (total growth inhibition) is over 10 µM. In addition, the IC50 in experiment [1] is over 10 µM. For the compound `CCOc1c2c(nn1C)C(=O)N(c1cc(C)c(=O)n(C)c1)C2c1ccc(Cl)cc1` (stereo not shown) [Example 76, 4-(4-chlorophenyl)-5-(1,5-dimethyl-6-oxo-1,6-dihydropyridin-3-yl)-3-ethoxy-2-methyl-4,5-dihydropyrrolo[3,4-c]pyrazol-6(2H)-one], in the experiment on THP-1 cells, the IC (total growth inhibition) was 0.3 µM. Also, in experiment [1], the IC50 worked out at 0.106 µM. For the compound `COc1c2c(nn1C)C(=O)N(c1cc(C)c(=O)n(C)c1)C2c1ccc(Cl)cc1` (stereo not shown) [Example 77, 4-(4-chlorophenyl)-5-(1,5-dimethyl-6-oxo-1,6-dihydropyridin-3-yl)-3-methoxy-2-methyl-4,5-dihydropyrrolo[3,4-c]pyrazol-6(2H)-one], the IC (total growth inhibition) in the experiment with THP-1 cells was 0.37 µM. For the same compound, in experiment [1], the IC50 was 0.0995 µM. For the compound `CCc1nn(CCO)c2c1C(c1ccc(Cl)cc1)N(c1cc(C)c(=O)n(C)c1)C2=O` (stereo not shown) [Example 78, 4-(4-chlorophenyl)-5-(1,5-dimethyl-6-oxo-1,6-dihydropyridin-3-yl)-3-ethyl-1-(2-hydroxyethyl)-4,5-dihydropyrrolo[3,4-c]pyrazol-6(1H)-one], the IC (total growth inhibition) with THP-1 cells was determined as 0.223 µM. Also, the IC50 in experiment [1] was found to be 0.0395 µM.

`CCc1nn(CCO)c2c1C(c1ccc(Cl)cc1)N(c1cc(C)c3onc(C)c3c1)C2=O` (stereo not shown) [Example 79, 4-(4-chlorophenyl)-5-(3,7-dimethylbenzo[d]isoxazol-5-yl)-3-ethyl-1-(2-hydroxyethyl)-4,5-dihydropyrrolo[3,4-c]pyrazol-6(1H)-one]: the IC (total growth inhibition) in the experiment on THP-1 cells came to 0.461 µM. The concentration for half-maximal inhibition (IC50) in experiment [1] was 0.15 µM. `CCc1c2c(nn1CCO)C(=O)N(c1cc(C)c3onc(C)c3c1)C2c1ccc(Cl)cc1` (stereo not shown) [Example 80, 4-(4-chlorophenyl)-5-(3,7-dimethylbenzo[d]isoxazol-5-yl)-3-ethyl-2-(2-hydroxyethyl)-4,5-dihydropyrrolo[3,4-c]pyrazol-6(2H)-one]: in the experiment on THP-1 cells, the IC (total growth inhibition) came to 1.03 µM. Moreover, the IC50 in experiment [1] was 0.178 µM. In the same order, the values of `Cc1ncccc1-n1nc2c(c1C)C(c1ccc(Cl)cc1)N(c1cc(C)c(=O)n(C)c1)C2=O` (stereo not shown) [Example 81, 4-(4-chlorophenyl)-5-(1,5-dimethyl-6-oxo-1,6-dihydropyridin-3-yl)-3-methyl-2-(2-methylpyridin-3-yl)-4,5-dihydropyrrolo[3,4-c]pyrazol-6(2H)-one] are 0.422 µM and 0.0743 µM.

With `Cc1ncccc1-n1nc(C)c2c1C(=O)N(c1cc(C)c(=O)n(C)c1)C2c1ccc(Cl)cc1` (stereo not shown) [Example 82, 4-(4-chlorophenyl)-5-(1,5-dimethyl-6-oxo-1,6-dihydropyridin-3-yl)-3-methyl-1-(2-methylpyridin-3-yl)-4,5-dihydropyrrolo[3,4-c]pyrazol-6(1H)-one], in the experiment on THP-1 cells, the IC (total growth inhibition) was determined as 0.406 µM. In experiment [1], the IC50 came out at 0.0294 µM. For `Cc1nn(-c2cncn2C)c2c1C(c1ccc(Cl)cc1)N(c1cc(C)c(=O)n(C)c1)C2=O` (stereo not shown) [Example 83, 4-(4-chlorophenyl)-5-(1,5-dimethyl-6-oxo-1,6-dihydropyridin-3-yl)-3-methyl-1-(1-methyl-1H-imidazol-5-yl)-4,5-dihydropyrrolo[3,4-c]pyrazol-6(1H)-one], the IC (total growth inhibition) in the experiment with THP-1 cells was 0.396 µM. For the same compound, the IC50 in experiment [1] came to 0.0968 µM. On to `CCc1nn(C2CC2)c2c1C(c1ccc(Cl)cc1)N(c1cc(OC)c3nnc(C)n3c1)C2=O` (stereo not shown) [Example 84, 4-(4-chlorophenyl)-1-cyclopropyl-3-ethyl-5-(8-methoxy-3-methyl-[1,2,4]triazolo[4,3-a]pyridin-6-yl)-4,5-dihydropyrrolo[3,4-c]pyrazol-6(1H)-one], for which the IC (total growth inhibition) in the experiment with THP-1 cells stood at 0.163 µM. Besides, the concentration for half-maximal inhibition (IC50) in experiment [1] was 0.092 µM. Turning to `CCc1nn(CCOC)c2c1C(c1ccc(Cl)cc1)N(c1cc(C)c3nnc(C)n3c1)C2=O` (stereo not shown) [Example 87, 4-(4-chlorophenyl)-5-(3,8-dimethyl-[1,2,4]triazolo[4,3-a]pyridin-6-yl)-3-ethyl-1-(2-methoxyethyl)-4,5-dihydropyrrolo[3,4-c]pyrazol-6(1H)-one], the IC (total growth inhibition) in the experiment with THP-1 cells was found to be 0.0598 µM. The IC50 in experiment [1] was found to be 0.0173 µM.

Source of the values: US8975417B2, “Pyrazolopyrrolidine derivatives and their use in the treatment of disease” (Novartis AG, priority 2013, dated 2015).
